Among the test systems are NCI-H226; PC-3; U-251; NCI-H23; TK-10; SK-MEL-28; SNB-19; A549; SF-295; A498; MDA-MB-435; IGROV-1; MDA-N; HCT-15; UACC-62; SW-620; HCT-116; DU-145; OVCAR-5; OVCAR-3.
What all share (test): NCI-60 cell line screen, 48 h

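Tested at 5 concentrations; 48 h exposure; 96-well plates; endpoints linearly interpolated, else capped at highest concentration. GI50: concentration for 50% inhibition of growth.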 Activity calls are given as the source filed them. No stated cut-off is given here; in the data, active = GI50 up to about 1.1 µM and inactive = higher.

On to `COc1cc2c3cc1Oc1c(OC)c(OC)cc4c1C(Cc1ccc(O)c(c1)Oc1ccc(cc1)CC3N(C)CC2)N(C)CC4` (stereo unspecified), for which the GI50 was 49.9 µM (inactive) in the assay on NCI-H226; 31.3 µM (inactive) in the assay with PC-3; 21.4 µM (inactive) in the assay with U-251; 14.8 µM (inactive) in the assay on NCI-H23; 42.8 µM (inactive) with TK-10; 64.4 µM (inactive) in the assay with SK-MEL-28. For the same compound, the GI50 in the assay on SNB-19 was 20.2 µM (inactive); with A549, 26.3 µM (inactive); with SF-295, 21.5 µM (inactive); in the assay on A498, 23.7 µM (inactive); in the assay with MDA-MB-435 it was > 10 µM (inactive); in the assay on IGROV-1, 39.8 µM (inactive). Besides, the GI50 was 21.7 µM (inactive) in the assay with MDA-N; 16.1 µM with HCT-15; 44.6 µM (inactive) with UACC-62; 69.8 µM (inactive) in the assay with SW-620; 45.3 µM (inactive) in the assay on HCT-116; 37.8 µM (inactive) in the assay with DU-145. Moreover, the GI50 in the assay on OVCAR-5 is 39.7 µM (inactive).

Consider `O=[As](O)(O)c1ccc(NCc2ccccc2)cc1`, for which the GI50 was > 100 µM (inactive) with NCI-H226; > 100 µM (inactive) with PC-3; > 100 µM (inactive) in the assay with U-251; 92.9 µM (inactive) in the assay on NCI-H23; > 100 µM (inactive) with TK-10; > 100 µM (inactive) in the assay on SK-MEL-28. Moreover, the GI50 with SNB-19, with A549, in the assay with SF-295, in the assay with A498, with MDA-MB-435 and with IGROV-1 was > 100 µM (inactive) each time. Further, the GI50 is > 100 µM (inactive) in the assay with MDA-N; > 100 µM (inactive) in the assay on OVCAR-3; over 100 µM in the assay with HCT-15; > 100 µM (inactive) in the assay with UACC-62; > 100 µM (inactive) with HCT-116; > 100 µM (inactive) in the assay on DU-145. Moreover, the GI50 in the assay on OVCAR-5 is > 100 µM (inactive).

`C[C@H](O)C1CC(Cn2nnc3c(N)ncnc32)C1(C)C` (stereo partly specified): the GI50 in the assay with NCI-H226, in the assay with PC-3, in the assay with U-251, in the assay on TK-10, in the assay with SK-MEL-28 and with SNB-19 was > 100 µM (inactive) throughout. Moreover, the GI50 in the assay on A549, in the assay with SF-295, with A498, in the assay on MDA-MB-435, in the assay with MDA-N and in the assay with OVCAR-3 was > 100 µM (inactive) each time. Further, the GI50 is over 100 µM in the assay with HCT-15; 5.36 µM (inactive) with UACC-62; > 100 µM (inactive) in the assay on SW-620; > 100 µM (inactive) in the assay with HCT-116; > 100 µM (inactive) with DU-145; > 100 µM (inactive) with OVCAR-5.

Regarding `N#CC(C#N)=C1c2ccccc2C(=NN)c2ccccc21`, the GI50 is > 100 µM (inactive) in the assay on NCI-H226; > 100 µM (inactive) in the assay with PC-3; 37.3 µM (inactive) with U-251; > 100 µM (inactive) in the assay on TK-10; > 100 µM (inactive) with SK-MEL-28; > 100 µM (inactive) in the assay on SNB-19. For the same compound, the GI50 was 4.83 µM (inactive) in the assay with SF-295; > 28.7 µM (inactive) in the assay with A498; > 100 µM (inactive) in the assay with MDA-MB-435; > 100 µM (inactive) in the assay with IGROV-1; > 100 µM (inactive) with MDA-N; > 100 µM (inactive) in the assay with OVCAR-3. Besides, the GI50 in the assay on HCT-15 is over 100 µM; with UACC-62 it was > 43.5 µM (inactive); in the assay with SW-620, > 100 µM (inactive); in the assay with DU-145, 5.25 µM (inactive); in the assay on OVCAR-5, > 100 µM (inactive).

On to `Cn1c(=O)c2sc3cc4c(cc3c2c2ccccc21)sc1c(=O)n(C)c2ccccc2c14`, for which the GI50 in the assay with NCI-H226 was > 100 µM (inactive); in the assay with PC-3, > 100 µM (inactive); in the assay with U-251 it was 19 µM (inactive); with NCI-H23, 45.7 µM (inactive); in the assay with TK-10, > 100 µM (inactive); in the assay with SK-MEL-28, > 100 µM (inactive). The GI50 was 89.3 µM (inactive) with A549; 15.2 µM (inactive) in the assay on SF-295; > 100 µM (inactive) in the assay on A498; > 100 µM (inactive) in the assay on MDA-MB-435; 65.9 µM (inactive) in the assay with IGROV-1; > 100 µM (inactive) in the assay with MDA-N. For the same compound, the GI50 in the assay with OVCAR-3 was > 100 µM (inactive); in the assay with HCT-15, over 100 µM; in the assay on UACC-62, > 100 µM (inactive); in the assay on SW-620, > 100 µM (inactive); in the assay on HCT-116 it was 67.5 µM (inactive); in the assay with DU-145, > 100 µM (inactive). Moreover, in the assay with OVCAR-5, the GI50 is 57.3 µM (inactive).

On to `CC(C)(C)c1cc(COc2cc(COc3ccc(-c4c5c(nc6c4CCc4ccc(-c7c8ccccc8nc8ccccc78)cc4-6)-c4cc(-c6c7ccccc7nc7ccccc67)ccc4CC5)cc3)cc(OCc3cc(C(C)(C)C)cc(C(C)(C)C)c3)c2)cc(C(C)(C)C)c1`, for which the GI50 in the assay on NCI-H226, in the assay on PC-3, with U-251, in the assay on NCI-H23, in the assay on TK-10 and in the assay with SK-MEL-28 was > 100 µM (inactive) each time. The GI50 in the assay on SNB-19, in the assay on A549, in the assay on SF-295, in the assay on A498, in the assay with MDA-MB-435 and with MDA-N was > 100 µM (inactive) in each case. The GI50 in the assay on OVCAR-3 was > 100 µM (inactive); in the assay with HCT-15 it was over 100 µM; in the assay on UACC-62 it was > 100 µM (inactive); in the assay with HCT-116, > 100 µM (inactive); with DU-145, > 100 µM (inactive); with OVCAR-5 it was > 100 µM (inactive).

As for `CCN(CC)P(=O)(c1ccc2c(c1)OCCOCCOCCOCCO2)N(CC)CC`, the GI50 in the assay on NCI-H226, with PC-3, in the assay with NCI-H23, in the assay with TK-10, in the assay on SK-MEL-28 and in the assay with SNB-19 was > 100 µM (inactive) in each case. The GI50 in the assay on A549, in the assay on SF-295, with A498, in the assay on MDA-MB-435, in the assay with IGROV-1 and in the assay on MDA-N was > 100 µM (inactive) each time. The GI50 with HCT-15 is over 100 µM; with UACC-62, > 100 µM (inactive); in the assay on SW-620 it was > 100 µM (inactive); in the assay with HCT-116, > 100 µM (inactive); with DU-145 it was > 100 µM (inactive).

Consider `CC1(C)[C@@H](Cn2cc(I)c(=O)[nH]c2=O)CC[C@@]1(C)CO`, for which the GI50 with NCI-H226, in the assay on PC-3, with U-251, in the assay with TK-10, in the assay on SK-MEL-28 and in the assay with SNB-19 was > 100 µM (inactive) throughout. For the same compound, the GI50 in the assay with A549, in the assay on SF-295, with A498, in the assay with MDA-MB-435, in the assay on MDA-N and in the assay on OVCAR-3 was > 100 µM (inactive) each time. The GI50 is over 100 µM with HCT-15; > 100 µM (inactive) with UACC-62; > 100 µM (inactive) in the assay with SW-620; > 100 µM (inactive) in the assay with HCT-116; > 100 µM (inactive) in the assay with DU-145; > 100 µM (inactive) in the assay with OVCAR-5.

On to `O=C(O)c1c2c(cc3c1CC1(Cc4ccccc4C1)C3)CCC2`, for which the GI50 was > 100 µM (inactive) with NCI-H226; > 100 µM (inactive) with PC-3; 42.6 µM (inactive) in the assay on U-251; 67.5 µM (inactive) with NCI-H23; > 100 µM (inactive) in the assay on TK-10; > 100 µM (inactive) in the assay with SK-MEL-28. In addition, the GI50 in the assay on A549 was 35.6 µM (inactive); with SF-295, > 100 µM (inactive); in the assay with A498, > 100 µM (inactive); in the assay with MDA-MB-435, > 100 µM (inactive); in the assay on IGROV-1, 59.4 µM (inactive); with MDA-N it was > 100 µM (inactive). For the same compound, the GI50 in the assay on OVCAR-3 is 68.1 µM (inactive); in the assay with HCT-15, 82.4 µM; with UACC-62, > 100 µM (inactive); with SW-620, > 100 µM (inactive); in the assay with HCT-116 it was > 10 µM (inactive); in the assay on DU-145, 66.5 µM (inactive). The GI50 in the assay on OVCAR-5 was > 100 µM (inactive).

Consider `CCOP(=O)(OCC)/C(C#N)=C/c1nccn1C`, for which the GI50 in the assay on NCI-H226, in the assay on PC-3, in the assay on U-251, in the assay on NCI-H23, with TK-10 and in the assay with SK-MEL-28 was > 100 µM (inactive) throughout. In addition, the GI50 in the assay on SNB-19, in the assay with A549, in the assay on SF-295, in the assay with A498, in the assay with MDA-MB-435 and in the assay with MDA-N was > 100 µM (inactive) in each case. In addition, the GI50 is > 100 µM (inactive) in the assay with OVCAR-3; over 100 µM in the assay with HCT-15; > 100 µM (inactive) in the assay with SW-620; > 100 µM (inactive) in the assay on HCT-116; > 100 µM (inactive) in the assay on DU-145; > 100 µM (inactive) in the assay on OVCAR-5.

Consider `CN(C)/C=N/CCN1CCOCC1`, for which the GI50 was > 100 µM (inactive) in the assay with NCI-H226; > 100 µM (inactive) with PC-3; > 100 µM (inactive) in the assay on U-251; > 100 µM (inactive) in the assay with NCI-H23; > 100 µM (inactive) in the assay on TK-10; 57.3 µM (inactive) with SK-MEL-28. Also, the GI50 in the assay with SNB-19, in the assay with A549, in the assay on SF-295, with A498, with MDA-MB-435 and with IGROV-1 was > 100 µM (inactive) in each case. Further, the GI50 in the assay with MDA-N is > 100 µM (inactive); with OVCAR-3 it was > 100 µM (inactive); in the assay on HCT-15, over 100 µM; in the assay on UACC-62, > 100 µM (inactive); in the assay with HCT-116, > 100 µM (inactive); in the assay with DU-145 it was > 100 µM (inactive). The GI50 in the assay with OVCAR-5 is > 100 µM (inactive).
